Measurements: US7687079B2, “Methods of treating ileus” (priority 2002, dated 2010)

Tests used:
Format in all cases: in vivo, rat
COX-2 mRNA = COX-2 mRNA expression in muscularis of transplanted grafts (real time RT-PCR); settings: CO-treated SITx rats, 4 hours after reperfusion
Description: The effects of inhalation of CO on transplant-induced pro-inflammatory and anti-inflammatory gene expression was assessed in muscularis extracts by RT-PCR. Muscularis extemae was collected from normal intestine and transplanted grafts 4 hours postoperatively and snap frozen in liquid nitrogen. This time point falls within the range of maximum inflammatory mediator expression that occurs between 3 and 6 hours following abdominal incision. Total RNA extraction was performed using the guanidium-thiocyanate phenol-chloroform extraction method as described previously (Eskandari et al., Am. J. Clin. Pathol. 75(3):367-370 (1997)). RNA pellets were resuspended in RNA-secure resuspension solution (Ambion Inc., Austin, Tex.), followed by removal of potentially contaminating DNA by treatment with DNase I (DNA-Free Kit, Ambion Inc., Austin, Tex.). Equal aliquots (5 μg) of total RNA from each sample were quantified by spectrophotometry (wavelength […]) and aliquoted at a concentration of 40 ng/μl. Peak mRNA expression was quantified in duplicate by SYBR Green two-step, real-time RT-PCR. […] Real-time PCR data were plotted as the ΔRn, fluorescence signal versus the cycle number. […] Quantification of mRNA expression was normalized to GAPDH and calculated relative to control using the comparative CT method (Schmittgen et al., J. Biochem. Biophys. Methods 46(1-2):69-8 (2000)). […]

serum nitrite/nitrate = serum nitrite/nitrate levels after SITx (Griess reaction); settings: SITx + CO vs SITx with air
Description: To monitor the stable end-products of NO metabolism, serum […] levels at 1, 4, and 24 hrs were measured using a commercially available test kit (Cayman, Ann Arbor, Mich.) and quantified according to the manufacturer's directions. In this assay system, nitrate is reduced to nitrite using nitrate reductase, and the nitrite concentration of the sample is subsequently measured using the Griess reaction.
FIG. 6 is a set of bar graphs that illustrate the effect of CO on serum IL-6 and nitrate/nitrite concentrations in animals receiving intestinal grafts at one and four hours after reperfusion. […] Serum IL-6 concentrations were determined using a rat enzyme-linked immunoassay (ELISA) kit (R&D, Cambridge, Mass.). The serum nitrite/nitrate levels, the stable end products of NO metabolism, were measured using a commercially available test kit (Cayman, Ann Arbor, Mich.). In this assay system, nitrate is reduced to nitrite using nitrate reductase, and nitrite concentration of the sample was subsequently measured using the Griess reaction. Serum IL-6 and nitrite/nitrate levels in animals subjected SITx and treated with air increased over time.

[1] = system: rats that underwent small bowel transplantation; assay: intestinal transit of orally fed fluorescein-labeled dextran after SITx; settings: for distribution of fluorescent label along the gastrointestinal tract: 2 hours after oral feeding
Description: To determine whether CO is protective against ileus associated with small bowel transplantation, orthotopic SITx was performed in syngenic Lewis rats. SITx with caval drainage was performed using a previously described procedure. […] The graft was perfused via the aortic segment with 5 ml chilled Ringer's lactate solution, and the intestinal lumen was irrigated with 20 ml of cold saline solution containing 0.5% neomycin-sulfate (Sigma, St. Louis, Mo.). End-to-side anastomoses between the graft aorta and the recipient infrarenal aorta, and between the graft portal vein and recipient vena cava, were performed with 10-0 Novafil™ suture. The cold ischemic time was 1 hour. The entire recipient intestine was removed and the enteric continuity was restored by proximal and distal end-to-end intestinal anastomoses. Recipient animals were given 20 mg/day prophylactic cefamandole nafate for 3 postoperative days. Transplanted recipients were given water 3 hours after surgery, and were fed 24 hours after surgery.
Four groups of animals were examined in this study, two of which received a SITx. Group 1 consisted of unoperated normal rats. Group 2 animals were exposed to CO with no surgery. In Group 3, syngeneic SITx were performed and the recipients kept in room air. Group 4 consisted of SITx recipients that were placed in the CO chamber for 1 hour before surgery and then re-exposed to CO immediately following surgery until sacrificed. In both Groups 3 and 4, normal LEW rats served as donors.
The animals were exposed to CO at a concentration of 250 ppm. Briefly, 1% CO in air was mixed with air (21% oxygen) in a stainless steel mixing cylinder and then directed into a 3.70 ft^3 glass exposure chamber at a flow rate of 12 L/min. A CO analyzer (Interscan, Chatsworth, Calif.) was used to measure CO levels continuously in the chamber. CO concentrations were maintained at 250 ppm at all times. The animals were supplied food and water during the exposures.
Intestinal transit was measured in controls and manipulated animals 48 hours postoperatively by evaluating the intestinal distribution of fluorescein-labeled dextran (Molecular Probes). Animals were lightly sedated with inhaled isofluran and fed orally with labeled dextran (200 μl of 6 mg/ml in saline). Two hours after administration, the animal was sacrificed and the entire bowel from stomach to distal colon was collected. […] After pelleting the intestinal tissue and chyme, aliquots of the supernatant were read in duplicate on a plate reader (CytoFluor II; excitation wavelength 530 nm and emission 590 nm) for quantification of the fluorescent signal in each bowel segment. […] Intestinal transit was determined for statistical analysis by calculating the geometric center (GC).

`[C-]#[O+]` [CO, carbon monoxide] was tested, and the “reduction of mean relative COX-2 mRNA expression” value (COX-2 mRNA) was “approximately 50%”, the serum nitrite/nitrate level (serum nitrite/nitrate) was “significantly decreased” and the intestinal transit ([1]; SITx + CO, Table 2) was “normal”. The “intestinal transit (Geometric Center)” value ([1]; SITx rats, inhaled CO 250 ppm, 48 hours postoperatively) was “significantly improved”, the “distribution of fluorescent label along the gastrointestinal tract” value ([1]; transplanted animals treated with CO) was “small bowel segments 6, 7 and 8” and the “distribution of fluorescent label along the gastrointestinal tract” value ([1]; unoperated control rats treated with CO) was “small bowel segments 9 and 10, and in the cecum”.
